Results published in patent publication US6921840B1 (The Trustees of the University of Pennsylvania, priority 1999, dated 2005).
Read-outs that look alike come from different tables or passages of the source.

Columns and labels:
[1] = target: T1, serotonin transporter (SERT) expressed in LLC-PK1 cells (Rattus norvegicus, UniProt P31652); assay: [125I]IPT competition binding, LLC-SERT membrane homogenates
T1 construct: host or cells: LLC-PK1 (LLC-SERT)
Source text: (§1) Three monoamine transporters expressed respectively in a common parental cell line, LLC-PK, (referred to as LLC-DAT. LLC-NET and LLC-SERT) were kindly provided by Dr. G. Rudnick of Yale University.

[2] = target: T2, dopamine transporter (DAT) expressed in LLC-PK1 cells (Rattus norvegicus, UniProt P23977); assay: [125I]IPT competition binding, LLC-DAT membrane homogenates
T2 construct: host or cells: LLC-PK1 (LLC-DAT)
T2 sequence (P23977 whole entry): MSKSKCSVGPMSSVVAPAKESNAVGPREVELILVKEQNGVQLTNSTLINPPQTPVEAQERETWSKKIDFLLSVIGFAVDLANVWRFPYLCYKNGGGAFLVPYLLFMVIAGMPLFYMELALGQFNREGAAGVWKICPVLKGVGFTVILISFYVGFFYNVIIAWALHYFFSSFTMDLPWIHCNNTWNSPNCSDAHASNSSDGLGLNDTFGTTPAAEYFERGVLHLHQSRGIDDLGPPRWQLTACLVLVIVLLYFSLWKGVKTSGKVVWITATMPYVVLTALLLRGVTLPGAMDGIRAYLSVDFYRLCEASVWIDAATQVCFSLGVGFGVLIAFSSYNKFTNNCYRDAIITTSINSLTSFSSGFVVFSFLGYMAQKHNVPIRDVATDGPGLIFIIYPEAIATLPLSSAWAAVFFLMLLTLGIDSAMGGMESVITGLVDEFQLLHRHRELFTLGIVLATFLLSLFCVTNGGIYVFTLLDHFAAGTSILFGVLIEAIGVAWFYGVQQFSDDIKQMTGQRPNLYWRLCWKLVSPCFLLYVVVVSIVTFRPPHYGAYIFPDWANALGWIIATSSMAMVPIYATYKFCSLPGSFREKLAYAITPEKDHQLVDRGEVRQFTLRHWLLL
Source text: as §1

[3] = target: T3, norepinephrine transporter (NET) expressed in LLC-PK1 cells (Homo sapiens, UniProt P23975); assay: [125I]IPT competition binding, LLC-NET membrane homogenates
T3 construct: host or cells: LLC-PK1 (LLC-NET)
T3 sequence (P23975 whole entry): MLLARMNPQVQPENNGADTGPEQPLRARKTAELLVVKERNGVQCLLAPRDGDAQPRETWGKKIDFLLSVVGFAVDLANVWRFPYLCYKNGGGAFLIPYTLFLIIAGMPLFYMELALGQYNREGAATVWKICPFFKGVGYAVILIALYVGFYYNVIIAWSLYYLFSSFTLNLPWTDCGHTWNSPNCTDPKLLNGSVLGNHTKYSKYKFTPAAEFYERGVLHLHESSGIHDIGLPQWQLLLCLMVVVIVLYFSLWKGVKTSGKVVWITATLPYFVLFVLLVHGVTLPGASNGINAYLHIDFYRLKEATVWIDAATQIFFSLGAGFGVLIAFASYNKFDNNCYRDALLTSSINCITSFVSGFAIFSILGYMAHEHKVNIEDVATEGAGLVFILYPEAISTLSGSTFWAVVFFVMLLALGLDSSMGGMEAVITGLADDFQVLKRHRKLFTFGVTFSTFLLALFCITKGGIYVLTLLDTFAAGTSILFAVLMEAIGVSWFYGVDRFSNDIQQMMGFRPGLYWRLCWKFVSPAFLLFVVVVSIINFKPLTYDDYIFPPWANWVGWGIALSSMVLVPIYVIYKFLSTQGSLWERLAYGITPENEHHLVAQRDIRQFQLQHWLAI
Source text: as §1

[4] = Biodistribution in rats after i.v. injection of radioactive tracer; format: in vivo, rat
Description: Three or four rats per group were used for each biodistribution study. While under ether anesthesia, 0.2 ml of a saline solution containing 10 μCi of radioactive tracer was injected into the femoral vein. The rats were sacrificed at the time indicated by cardiac excision while under ether anesthesia. Organs of interest were removed and weighed, and the radioactivity was counted using a Packard automatic gamma counter (Model 5000). The percent dose per organ was calculated by a comparison of the tissue counts to counts of 1% of the initial dose (100 times diluted aliquots of the injected material) measured at the same time.
Regional brain distribution in rats was measured after an i.v. injection of the radioactive tracer. Samples from different brain regions [cortex (CX), striatum (ST), hippocampus (HP), cerebellum (CB) and hypothalamus (HY)] were dissected, weighed and counted. The percentage dose/g of each sample was calculated by comparing sample counts with the counts of the diluted initial dose described above. The ratio of specific binding (SB) in each region was obtained by dividing the difference of each region from the cerebellum (percentage dose/g) with that of the cerebellum [(region-CB)/CB].

SERT [5] = target: T4, SERT (Rattus norvegicus, UniProt P31652); assay: In vivo competitive binding: drug pretreatment before [125I]IDAM; settings: 2 mg/kg i.v. 5 min prior to tracer; 60 min after tracer
T4 sequence (P31652 whole entry): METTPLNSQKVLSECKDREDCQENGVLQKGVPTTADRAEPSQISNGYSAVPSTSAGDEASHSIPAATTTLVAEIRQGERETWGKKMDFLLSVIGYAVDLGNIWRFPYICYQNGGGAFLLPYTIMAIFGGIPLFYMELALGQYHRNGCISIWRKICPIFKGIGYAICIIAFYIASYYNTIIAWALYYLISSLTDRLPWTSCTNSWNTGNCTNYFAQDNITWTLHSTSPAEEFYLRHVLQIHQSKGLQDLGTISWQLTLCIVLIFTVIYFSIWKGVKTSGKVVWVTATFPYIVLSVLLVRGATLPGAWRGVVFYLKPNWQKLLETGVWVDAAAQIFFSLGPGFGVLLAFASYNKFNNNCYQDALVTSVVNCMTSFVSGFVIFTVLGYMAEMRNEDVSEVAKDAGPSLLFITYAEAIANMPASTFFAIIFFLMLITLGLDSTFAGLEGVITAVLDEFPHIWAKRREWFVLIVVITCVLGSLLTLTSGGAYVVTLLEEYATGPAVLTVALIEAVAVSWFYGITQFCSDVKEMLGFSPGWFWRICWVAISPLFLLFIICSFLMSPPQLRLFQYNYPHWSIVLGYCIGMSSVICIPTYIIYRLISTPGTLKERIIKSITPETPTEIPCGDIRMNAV
Description: Experiments were performed using groups of 3-4 animals per study. […] The reduction of regional specific binding in the drug-pretreated rats was compared to the control animals with saline pretreatment.

SERT [6] = target: T4, SERT; assay: Competition binding with [125I]IDAM in rat frontal cortical homogenate; set-up: The frontal cortex of rat brain were dissected and homogenized in 30 volumes of buffer; from tissue; host or cells: rat frontal cortex membrane homogenates (male Sprague-Dawley rats, control and PCA-lesioned)
Description: The homogenates were centrifuged at 20,000 g for 20 min. The resulting pellets were then re-suspended and recentrifuged. The final pellets were suspended in the same buffer and used for in vitro binding assays.
Various inhibitors were serially diluted with the buffer containing 0.1% BSA to overcome the stickiness and loss due to dilution. […] Incubation was carried out for 60 min at room temperature and then terminated by separation of bound from free radioligand by filtration through glass fiber filters (Schleicher & Schuell No. 25, Keene, N.H.) presoaked with 1% polyethylenimine. The filters were then washed three times with 3 ml of ice-cold […] Tris buffer and counted in a gamma counter (Packard 5000) with 70% efficiency. To study the effect of […], the homogenates were prepared in a sodium-free 50 mM Tris-HCl/5 mM KCl buffer.

[7] = Partition coefficient octanol/buffer; format: physicochemical; settings: 1-octanol/pH 7 buffer
SERT [8] = target: T4, SERT; set-up: The frontal cortex of rat brain were dissected and homogenized in 30 volumes of buffer; from tissue; host or cells: rat frontal cortex membrane homogenates (male Sprague-Dawley rats, control and PCA-lesioned); settings: Kung et al. 1992, cited from earlier work
[9] = [125I]IPT ligand, LLC-PK1 membranes, read-out: Inhibition constant (Ki) SERT
[10] = [125I]IPT ligand, LLC-PK1 membranes, read-out: Inhibition constant (Ki) DAT
[11] = [125I]IPT ligand, LLC-PK1 membranes, read-out: Inhibition constant (Ki) NET
[12] = 0.2 nM [125I]IDAM, rat frontal cortical homogenate, read-out: Ki for inhibition of [125I]IDAM binding

T1 sequence (P31652 whole entry): as above

CN(C)Cc1ccccc1Sc1ccc(Br)cc1CO [brominated derivative, 5-bromo-2-[[2-2[(dimethylamino)methyl]phenyl]thio]benzyl alcohol]
Ki [1, 9]: < 0.1 nM
Ki [2, 10]: > 10000 nM
Ki [3, 11]: 35.4 nM

CN(C)Cc1ccccc1Sc1ccccc1N [K109]
Ki [1, 9]: 0.038 ± 0.01 nM
Ki [2, 10]: 1700 ± 600 nM

CN(C)Cc1ccccc1Sc1ccc(Cl)cc1CO [K99033]
Ki [1]: < 0.01 nM

CN(C)Cc1ccccc1Sc1ccc(Br)cc1N [K99026]
Ki [1, 9]: ~0.022 nM
Ki [3]: 214 ± 68 nM

CCCOCc1cc(I)ccc1Sc1ccccc1CN(C)C [K120]
Ki [1, 9]: 0.33 ± 0.06 nM
Ki [2, 10]: 9300 ± 200 nM
Ki [3, 11]: 382 ± 46 nM

CN(C)Cc1ccccc1Oc1ccc([125I])cc1CO [[^125I]ODAM, 5-[123-Iodo or 125-iodo]-2-(2-dimethylaminomethylphenoxy)-benzyl alcohol]
% dose/organ BLOOD ([4]; 2 min): 3.009 ± 0.212 % dose/organ
% dose/organ BRAIN ([4]; 2 min): 2.033 ± 0.087 % dose/organ
% dose/organ THYROID ([4]; 2 min): 0.080 ± 0.019 % dose/organ
Regional brain distribution (ratio/CB) CEREBELLUM ([4]; 2 min): 1.000
Regional brain distribution (ratio/CB) CORTEX ([4]; 2 min): 1.436
Regional brain distribution (ratio/CB) HIPPOCAMPUS ([4]; 2 min): 0.983
Regional brain distribution (ratio/CB) HYPOTHALAMUS ([4]; 2 min): 1.221
Regional brain distribution (ratio/CB) STRIATUM ([4]; 2 min): 0.906
% dose/organ BLOOD ([4]; 30 min): 3.517 ± 0.504 % dose/organ
% dose/organ BRAIN ([4]; 30 min): 1.489 ± 0.146 % dose/organ
% dose/organ THYROID ([4]; 30 min): 0.039 ± 0.006 % dose/organ
Regional brain distribution (ratio/CB) CEREBELLUM ([4]; 30 min): 1.000
Regional brain distribution (ratio/CB) CORTEX ([4]; 30 min): 1.771
Regional brain distribution (ratio/CB) HIPPOCAMPUS ([4]; 30 min): 1.563
Regional brain distribution (ratio/CB) HYPOTHALAMUS ([4]; 30 min): 1.860
Regional brain distribution (ratio/CB) STRIATUM ([4]; 30 min): 1.590
% dose/organ BLOOD ([4]; 60 min): 3.296 ± 0.373 % dose/organ
% dose/organ BRAIN ([4]; 60 min): 0.785 ± 0.231 % dose/organ
% dose/organ THYROID ([4]; 60 min): 0.028 ± 0.005 % dose/organ
Regional brain distribution (ratio/CB) CEREBELLUM ([4]; 60 min): 1.000
Regional brain distribution (ratio/CB) CORTEX ([4]; 60 min): 1.690
Regional brain distribution (ratio/CB) HIPPOCAMPUS ([4]; 60 min): 1.791
Regional brain distribution (ratio/CB) HYPOTHALAMUS ([4]; 60 min): 1.858
Regional brain distribution (ratio/CB) STRIATUM ([4]; 60 min): 1.605
% dose/organ BLOOD ([4]; 120 min): 1.868 ± 0.186 % dose/organ
% dose/organ BRAIN ([4]; 120 min): 0.267 ± 0.066 % dose/organ
% dose/organ THYROID ([4]; 120 min): 0.034 ± 0.006 % dose/organ
Regional brain distribution (ratio/CB) CEREBELLUM ([4]; 120 min): 1.000
Regional brain distribution (ratio/CB) CORTEX ([4]; 120 min): 1.672
Regional brain distribution (ratio/CB) HIPPOCAMPUS ([4]; 120 min): 1.846
Regional brain distribution (ratio/CB) HYPOTHALAMUS ([4]; 120 min): 1.630
Regional brain distribution (ratio/CB) STRIATUM ([4]; 120 min): 1.617
% dose/organ BLOOD ([4]; 240 min): 0.976 ± 0.073 % dose/organ
% dose/organ BRAIN ([4]; 240 min): 0.065 ± 0.017 % dose/organ
% dose/organ THYROID ([4]; 240 min): 0.041 ± 0.038 % dose/organ
Regional brain distribution (ratio/CB) CEREBELLUM ([4]; 240 min): 1.000
Regional brain distribution (ratio/CB) CORTEX ([4]; 240 min): 1.322
Regional brain distribution (ratio/CB) HIPPOCAMPUS ([4]; 240 min): 1.648
Regional brain distribution (ratio/CB) HYPOTHALAMUS ([4]; 240 min): 1.343
Regional brain distribution (ratio/CB) STRIATUM ([4]; 240 min): 1.539

COC(=O)C(c1ccccc1)C1CCCCN1 (stereo not shown) [methylphenidate]
effect of pretreatment on specific binding of [125I]IDAM in rat brain regions (SERT [5]): no effect
Ki (SERT [6]): > 1000 nM
Ki for inhibition of [125I]IDAM binding (SERT [6]; 0.2 nM [125I]IDAM, rat frontal cortical homogenate): much less potent

CN(C)Cc1ccccc1Sc1ccc(Br)cn1 [K102]
Ki [1, 9]: > 1000 nM

CN(C)Cc1cc(N)ccc1Cc1ccccc1 [K99034]
Ki [1, 9]: 35 ± 2.5 nM

CN(C)Cc1ccccc1Oc1ccc(I)cc1CO [ODAM, 5-Iodo-2-(2-dimethylaminomethylphenoxy)-benzyl alcohol]
Ki [1, 9]: 0.12 nM
Ki [2, 10]: 3900 ± 700 nM
% dose/organ BRAIN ([4]; 2 min): 2.03 % dose/organ
Regional brain distribution (ratio/CB) HYPOTHALAMUS ([4]; 2 min): 1.22
% dose/organ BRAIN ([4]; 30 min): 1.49 % dose/organ
Regional brain distribution (ratio/CB) HYPOTHALAMUS ([4]; 30 min): 1.86
% dose/organ BRAIN ([4]; 60 min): 0.79 % dose/organ
Regional brain distribution (ratio/CB) HYPOTHALAMUS ([4]; 60 min): 1.86
% dose/organ BRAIN ([4]; 120 min): 0.27 % dose/organ
Regional brain distribution (ratio/CB) HYPOTHALAMUS ([4]; 120 min): 1.63
% dose/organ BRAIN ([4]; 240 min): 0.07 % dose/organ
Regional brain distribution (ratio/CB) HYPOTHALAMUS ([4]; 240 min): 1.34
Ki (SERT [6]; [12]): 2.88 ± 0.88 nM

CN(C)Cc1ccccc1Sc1ccc(I)cc1N [K99028]
Ki [1]: ~0.013 nM
Ki [3, 11]: 699 ± 80 nM

CCN1CCC[C@H]1CNC(=O)c1c(O)c(Cl)cc(Cl)c1OC [Raclopride, raclopride]
effect of pretreatment on specific binding of [125I]IDAM in rat brain regions (SERT [5]): no effect
Ki (SERT [6]; [12]): 669 nM

CN(C)Cc1ccccc1Sc1ccc(I)cc1CO [IDAM, 5-iodo-2-[[2-2[(dimethylamino)methyl]phenyl]thio]benzyl alcohol]
effect of pretreatment on specific binding of [125I]IDAM in rat brain regions (SERT [5]): dramatically reduced
Ki [1]: < 0.1 nM
selectivity for SERT ([1]; SERT versus DAT and NET): more than 1,000 fold
Ki [2, 10]: > 10000 nM
partition coefficient [7]: 473
Ki (SERT [6]): 0.08 nM

CN(C)Cc1ccccc1Sc1ccc(Br)cc1[N+](=O)[O-] [K110]
Ki [1, 9]: 1.9 nM
Ki [2, 10]: 14700 ± 2200 nM

CNCc1ccccc1Sc1ccc(I)cc1CO [K99032]
Ki [1, 9]: < 0.01 nM

CC(=O)OCc1cc(Br)ccc1Sc1ccccc1CN(C)C [K68]
Ki [1, 9]: 2.42 ± 0.06 nM
Ki [2, 10]: 20.4 ± 1.55 nM
Ki [3, 11]: 420 ± 62.5 nM

CN(C)Cc1ccccc1Oc1ccc(I)cc1 [K99039]
Ki [1, 9]: < 0.01 nM

CNCCC(Oc1ccc(I)cc1C)c1ccccc1 (stereo not shown) [4-I-tomoxetine]
Kd (SERT [8]): 0.04 nM
nonspecific binding (SERT [8]; at Kd value): > 25%

CN(C)Cc1ccccc1Sc1ccc(Br)cc1NO [K99025]
Ki [1, 9]: ~0.075 nM
Ki [3, 11]: 165 ± 9 nM

Cc1ccccc1Nc1ccc(N)cc1CN(C)C [K99036]
Ki [1, 9]: 139 ± 15 nM

COCc1cc(I)ccc1Sc1ccccc1CN(C)C [K104]
Ki [1]: 0.02 nM
Ki [2]: 11000 ± 200 nM
Ki [3]: 155 ± 18.7 nM

CCOCc1cc(I)ccc1Sc1ccccc1CN(C)C [K119]
Ki [1, 9]: 0.234 nM
Ki [2, 10]: 11100 ± 1100 nM

Cc1ccccc1Nc1ccc(I)cc1CN(C)C [K99037]
Ki [1, 9]: 27.3 ± 6.9 nM
